US9573899B2, “USP7 inhibitor compounds and methods of use” (Genentech, Inc., priority 2015, dated 2017)

Key:
[1] = target: T1, USP47 (Homo sapiens, UniProt Q96K76); test: Ub-Rho110 DUB assay, Table 2, USP47; format: biochemical
T1 sequence (Q96K76 1-1375): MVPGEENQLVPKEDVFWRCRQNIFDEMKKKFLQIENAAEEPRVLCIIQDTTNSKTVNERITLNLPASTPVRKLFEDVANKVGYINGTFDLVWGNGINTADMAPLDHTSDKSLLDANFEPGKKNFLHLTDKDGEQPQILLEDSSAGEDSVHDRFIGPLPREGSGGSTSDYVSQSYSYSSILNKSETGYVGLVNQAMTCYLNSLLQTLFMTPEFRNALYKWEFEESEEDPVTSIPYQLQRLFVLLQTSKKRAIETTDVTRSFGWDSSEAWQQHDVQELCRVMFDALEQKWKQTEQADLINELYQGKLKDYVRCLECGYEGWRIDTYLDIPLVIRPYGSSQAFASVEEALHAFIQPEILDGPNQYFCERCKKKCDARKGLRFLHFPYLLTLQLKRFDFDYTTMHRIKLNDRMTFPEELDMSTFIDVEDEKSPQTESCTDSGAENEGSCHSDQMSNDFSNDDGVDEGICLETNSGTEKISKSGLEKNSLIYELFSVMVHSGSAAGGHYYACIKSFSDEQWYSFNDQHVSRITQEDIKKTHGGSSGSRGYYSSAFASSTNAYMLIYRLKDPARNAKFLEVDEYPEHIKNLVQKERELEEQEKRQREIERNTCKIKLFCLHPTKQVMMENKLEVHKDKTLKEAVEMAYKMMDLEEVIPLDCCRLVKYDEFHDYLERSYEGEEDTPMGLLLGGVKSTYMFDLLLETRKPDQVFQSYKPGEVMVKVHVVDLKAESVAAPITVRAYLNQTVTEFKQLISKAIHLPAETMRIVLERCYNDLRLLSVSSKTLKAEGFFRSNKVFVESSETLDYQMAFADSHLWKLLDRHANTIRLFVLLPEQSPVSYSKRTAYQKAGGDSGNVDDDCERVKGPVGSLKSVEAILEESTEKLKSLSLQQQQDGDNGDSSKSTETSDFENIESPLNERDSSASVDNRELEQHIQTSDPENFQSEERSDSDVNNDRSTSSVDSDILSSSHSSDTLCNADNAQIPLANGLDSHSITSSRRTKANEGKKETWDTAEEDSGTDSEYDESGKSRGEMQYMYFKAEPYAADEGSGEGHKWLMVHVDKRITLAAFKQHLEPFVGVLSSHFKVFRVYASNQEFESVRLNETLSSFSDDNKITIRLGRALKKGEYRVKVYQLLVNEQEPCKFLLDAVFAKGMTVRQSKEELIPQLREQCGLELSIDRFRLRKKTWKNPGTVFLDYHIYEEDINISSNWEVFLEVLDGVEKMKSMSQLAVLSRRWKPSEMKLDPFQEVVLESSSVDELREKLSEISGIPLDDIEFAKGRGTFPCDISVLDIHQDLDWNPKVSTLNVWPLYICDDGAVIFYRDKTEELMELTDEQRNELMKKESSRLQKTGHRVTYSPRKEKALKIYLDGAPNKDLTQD

[2] = system: p53 and p21 in HCT116 colon cancer cell lines; test: Western blot of p53 and p21 in isogenic HCT116 cell lines (FIG. 2A); format: cell-based, Human; settings: isogenic HCT116: wild-type, USP7 null
Protocol: (§1) In 24-well plates, 0.10-0.15×10^6 (adherent) or 0.5×10^6 (suspension) cells were treated with 15 μM or 2.5 μM compounds, respectively, for 24 h in low serum prior to lysis for Western Blot analysis.

[3] = system: MDM2 in MCF7 breast cancer cells; test: MDM2 turnover in MCF7 cells with cycloheximide (FIG. 3A); format: cell-based; settings: 15 μM, in the presence of cycloheximide (CHX)
Protocol: In 24-well plates, 0.15×10^6 MCF-7 cells were treated for a total of 8 h with DMSO or compounds (15 μM). During that 8 h, cycloheximide (CHX) was added for the indicated times prior to harvest.

[4] = system: p53, p21, MDM2 and E6AP in RKO, RKO-E6, Vibo and SiHA cell lines; test: Western blot in RKO, RKO-E6, Vibo and SiHA cells (FIG. 14A); format: cell-based
Protocol: as §1

[5] = system: colon cancer cell lines RKO and RKO-E6, and cervical cancer cell lines Vibo and SiHA; test: Incucyte cell proliferation in RKO, RKO-E6, Vibo and SiHA cells (FIG. 15); format: cell-based
Protocol: 2,500-5,000 cells were seeded in 1-well of a 96-well plate (Corning; 3904). The following day, the media was changed from normal (10%) to low serum (0.5%) containing vehicle (DMSO) or compounds. 16-24 h later FBS was added to each well to bring serum levels back to normal (10%). Cells were then allowed to grow for 2 days. All treatments were done in triplicate. The day after cells were seeded, the media was changed to low serum media containing 2 μM CellEvent Caspase 3/7 reagent (Life Technologies; C10423) and compounds. The plates were placed in an IncuCyte (Essen Bioscience, Inc.) live cell imager and scanning was started 15-20 mins after. IncuCyte™ ZOOM facilitates live-cell monitoring via customized imaging protocols. Images were taken every 2 h for at least 3 days, using a 10× objective. Phase contrast was used to measure cell confluency/density while green fluorescence was used to measure caspase activity. The images were analyzed using IncuCyte software (Basic Analysis parameters) and a ratio of caspase activity to cell density was determined.

[6] = target: T2, USP5 (Homo sapiens, UniProt P45974); test: Ub-Rho110 DUB assay, Table 2, USP5
T2 sequence (P45974 1-858): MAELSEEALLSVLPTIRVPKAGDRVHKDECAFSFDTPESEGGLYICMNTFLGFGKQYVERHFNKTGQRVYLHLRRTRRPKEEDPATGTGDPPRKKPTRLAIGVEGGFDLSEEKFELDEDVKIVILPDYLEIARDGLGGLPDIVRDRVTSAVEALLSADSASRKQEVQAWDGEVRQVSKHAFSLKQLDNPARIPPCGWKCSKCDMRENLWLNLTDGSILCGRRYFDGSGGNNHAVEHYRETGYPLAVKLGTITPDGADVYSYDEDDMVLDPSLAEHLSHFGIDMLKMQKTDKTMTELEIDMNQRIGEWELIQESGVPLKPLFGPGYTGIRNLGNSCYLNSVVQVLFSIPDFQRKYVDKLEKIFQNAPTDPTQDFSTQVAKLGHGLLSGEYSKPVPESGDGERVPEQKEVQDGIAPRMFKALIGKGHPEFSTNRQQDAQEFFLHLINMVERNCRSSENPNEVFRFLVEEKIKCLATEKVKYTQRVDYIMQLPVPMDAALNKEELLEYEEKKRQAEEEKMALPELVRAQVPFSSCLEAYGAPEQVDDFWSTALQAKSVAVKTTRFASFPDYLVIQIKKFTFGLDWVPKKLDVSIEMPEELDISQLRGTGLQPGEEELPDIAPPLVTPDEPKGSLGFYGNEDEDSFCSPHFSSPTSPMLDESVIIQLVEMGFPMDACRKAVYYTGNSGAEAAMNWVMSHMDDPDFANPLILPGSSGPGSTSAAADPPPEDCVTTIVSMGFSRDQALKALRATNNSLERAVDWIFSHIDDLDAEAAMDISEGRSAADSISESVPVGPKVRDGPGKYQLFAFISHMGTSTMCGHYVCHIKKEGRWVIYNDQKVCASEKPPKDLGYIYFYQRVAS

IC50 [1]: > 200 µM
IC50 [6]: > 200 µM
SMILES: CCc1c(-c2ccc3cn(C)nc3c2)cnc(N)c1-c1ccc(O)cc1 [Compound 89, 4-[2-amino-4-ethyl-5-(2-methylindazol-6-yl)-3-pyridyl]phenol]
stabilization of p53 and p21 (western blot) [2]: not
destabilizing effect on MDM2 (western blot) [3]: less active
effect on p53, p21, MDM2 and E6AP (western blot) [4]: stabilize p53, p21, and destabilize MDM2 and E6AP
cell viability (Incucyte cell proliferation) [5]: not
